Data: patent publication US20030212100A1, “Quinoline derivatives and medicinal use thereof” (priority 2000, published 2003)

Tests used:
Assay type in all cases: cell-based
human PPARγ receptor = target: T1, human PPARγ receptor (Homo sapiens, UniProt P37231); assay: Luciferase reporter assay of PPARγ agonist activity (Gal4-PPARγ chimera receptor in CV-1 cells); details: luciferase activity with 1 μM Pioglitazone taken as 100, read-out: PPAR γ agonist activity, relative activity; for Emax at 0.1 µM: CV-1, 0.1 μM compound; for Emax at 1 µM: CV-1, 1 μM compound; for Emax at 10 µM: CV-1, 10 μM compound
T1 construct: corresponding to Ser204-Tyr506 for human PPARγ1 receptor and human PPARγ2; expressed in transfected cells; host or cells: CV-1 cells (pSG5-based expression vector)
T1 sequence (P37231 204-505 limits assumed): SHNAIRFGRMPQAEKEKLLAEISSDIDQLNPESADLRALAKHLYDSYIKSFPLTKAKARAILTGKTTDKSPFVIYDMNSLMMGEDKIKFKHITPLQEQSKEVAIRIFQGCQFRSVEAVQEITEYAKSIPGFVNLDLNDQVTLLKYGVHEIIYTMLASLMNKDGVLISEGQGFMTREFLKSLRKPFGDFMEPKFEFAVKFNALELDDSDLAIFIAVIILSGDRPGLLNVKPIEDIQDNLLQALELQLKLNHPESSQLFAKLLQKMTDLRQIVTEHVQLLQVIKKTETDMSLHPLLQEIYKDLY
Method: (§1) Measurement of PPARα Agonist Activity and PPARγ Agonist Activity
(§2) 1. Materials for Assay of Luciferase Using Human PPARα and PPARγ Receptors
(§3) The entire procedure was carried out according to the fundamental methods of genetic engineering and the ordinary method in the yeast one-hybrid or two-hybrid system was applied.
(§4) PGL2-UAS5-TK-luc was prepared as a reporter plasmid carrying a response sequence of Gal4 protein as a basic transcription factor of yeast, an enhancer sequence with five repeat part of UAS, a luciferase gene (luc) under the control of timidine kinase (TK) promoter. Specifically, a DNA fragment encoding a TK promoter (−105/+51) on the downstream side of an enhancer sequence comprising two time repeat of UAS was amplified by PCR using pRL-TK carrying a TK promoter (Promega, Trade name: Catalogue No. E2241) as the template and the primers: […]
(§5) After the fragment was cleaved with XhoI-Hind III, pGL2-UAS2-TK-luc was obtained by inserting the resultant fragment into the XhoI-Hind III site located on the upstream side of a luciferase structural gene on pGL2-Basic vector (Promega, Trade name: Catalogue No. E1641).
(§6) After cleavage of a synthetic DNA as an enhancer sequence comprising three time repeat of Gal4 response sequence (SEQ ID NO: 3): 5′-ATTGGTAC([…])×3 AGATCTCGAC) using KpnI and BgIII was carried out, pGL2-UAS5-TK-luc was prepared by inserting the resulting fragment into the KpnI-BgIIIb site of pGL2-UAS2-TK-luc.
(§7) A vector for expression of a chimera receptor protein, in which a ligand binding region of an internuclear receptor human PPARα or PPARγ receptor was fused with the carboxyl terminal of a DNA binding region of yeast Ga14 protein, was prepared as follows:
(§8) The structural gene of pSG5 (STRATAGENE, Trade Name: Catalogue No. 216201) as the basic expression vector was changed for the chimera receptor except that the promoter-enhancer region was maintained as it was.
(§9) The DNA encoding the ligand binding region of the human PPARα or PPARγ receptor was fused on the downstream side of the DNA encoding the DNA binding region and the amino acid sequence from 1 to 147 positions of Ga14 protein so that their reading frames were fitted and the resulting fused DNA was inserted into pSG5 (trade name) on the down stream side of the promoter-enhancer region. In this step, the DNA sequence was arranged so that a signal for transfer into the nucleus (Ala Pro Lys Lys Lys Arg Lys Val Gly (SEQ ID: No: 4) derived from SV-40T antigen was located on the amino terminal of the ligand binding region of PPARα or PPARγ receptor in order to localize the chimera receptor in the nucleus.
(§10) Based on comparison of the human PPAR receptors described in R. Mukherjee et al., [see J. Steroid Biochem. Molec. Biol., Vol. 51, p157 (1994)] and M. E. Green et al., [see Gene Expression, Vol. 4, p281 (1995))], as the structural gene part used for the ligand binding region PPARα or PPARγ, the human PPARα ligand binding region: Ser167-Tyr468; and the PPARγ ligand binding region: Ser176-Tyr478 were used, which had the same sequences corresponding to Ser204-Tyr506 for human PPARγ1 receptor and human PPARγ2, respectively.
(§11) In order to monitor influence against the basic transcription, an expression vector was prepared which carried a DNA encoding only the DNA binding region and the amino acid sequence from 1 to 147 position of Ga14 protein defective in its PPAR ligand binding region and a signal for transfer into the nucleus of SV-40T-antigen.
(§12) 2. Assay of Luciferase Using Human PPARα or PPARγ Receptor
(§13) CV-1 cells used as a host cell were cultivated according to an ordinary method. Specifically, a fetal bovine serum (Intergent, Catalogue No. 1020-90) was added to a Dulbecco's modified Eagle's medium (DMEM) so that the final concentration became 10%. Further, penicillin G (50 U/ml) and streptomycin sulfate (50 μg/ml) were added. Cultivation was conducted in the resulting medium in a 5% carbon dioxide gas at 37° C. […]

[1] = tested on: TNFα transcription (human TNF transcription-controlling region); assay: Inhibition of TNFα production: luciferase under human TNF transcription-controlling region in 3T3-L1 cell strain No. 46; details: 10 μM compound; luciferase activity with DMSO taken as 100 (no hTNF: 40%); 24 hours
Source text: Test for in-vitro Evaluation of the Action of Inhibiting the Production of Tumor Necrosis Factor α (TNFα) Using Lipocytes (Derived from 3T3-L1)
A luciferase gene was bonded to the downstream side of human TNF transcription-controlling region. The resulting material was stably inserted into the chromosomes of 3T3-L1 cells. The thus-obtained cell strain No. 46 was used for evaluation.
The cell strain No. 46 was cultivated according to an ordinary method. Specifically, a bovine serum (Cell Culture Technology, Catalogue No. CC017-502) was added to a Dulbecco's modified Eagle's medium (DMEM) so that the final concentration became 10%. Further, 50 U/ml of penicillin G, 50 ug/ml of streptomycin sulfate and 0.4 mg/ml of G418 were added. In the resulting medium was conducted cultivation in a 5% carbon dioxide gas at 37° C.
The cell strain No. 46 was planted into a PLL (poly L-lysine)-coated 48-well plate. When the cell strain reached confluence and then at least two days passed, the medium was substituted with the above medium containing 9 ng/m of hTNF (Genzyme) and an activity for TNFα transcription was induced. hTNF was added and, simultaneously therewith, a compound of the present invention was added so that the final concentration became 10 μM. 24 hours later, the cells were observed by a microscope. Then, the cells were fused and the luciferase activity was measured according to an ordinary method.
Regarding the activity for TNFα transcription, the luciferase activity when DMSO was added in place of the compound, was taken as 100; and the relative activity when 10 uM of the present compound was added, was shown in Table 1. Incidentally, the relative luciferase activity when no hTNF was added, was 40%.

human PPARα receptor = target: T2, human PPARα receptor (Homo sapiens, UniProt Q07869); assay: Luciferase reporter assay of PPARα agonist activity (Gal4-PPARα chimera receptor in CV-1 cells); details: luciferase activity with 10 μM Wy-14,643 taken as 100, read-out: PPARα agonist activity, relative activity; for Emax at 0.1 µM: CV-1, 0.1 μM compound; for Emax at 1 µM: CV-1, 1 μM compound; for Emax at 10 µM: CV-1, 10 μM compound
T2 construct: expressed in transfected cells; host or cells: CV-1 cells (pSG5-based expression vector)
T2 sequence (Q07869 167-468): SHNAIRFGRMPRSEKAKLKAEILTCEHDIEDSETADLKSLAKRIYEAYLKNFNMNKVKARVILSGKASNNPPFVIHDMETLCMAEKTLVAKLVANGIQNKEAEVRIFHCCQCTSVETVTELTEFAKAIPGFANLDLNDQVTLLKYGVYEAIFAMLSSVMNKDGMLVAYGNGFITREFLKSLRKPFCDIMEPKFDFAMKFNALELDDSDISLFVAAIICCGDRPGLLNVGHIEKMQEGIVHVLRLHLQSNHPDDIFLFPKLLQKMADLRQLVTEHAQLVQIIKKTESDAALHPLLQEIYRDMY
Method: as §1, §2, §3, §4, §5, §6, §7, §8, §9, §10, §11, §12, §13

SMILES	Emax at 0.1 µM (human PPARγ receptor) [%]	Emax at 1 µM (human PPARγ receptor) [%]	Emax at 10 µM (human PPARγ receptor) [%]	Activity for TNFα transcription, relative activity [1]	Emax at 0.1 µM (human PPARα receptor) [%]	Emax at 1 µM (human PPARα receptor) [%]	Emax at 10 µM (human PPARα receptor) [%]
COc1ccc2ncc(COc3ccc(C=C(C(C)=O)C(C)=O)cc3)c(OC(C)C)c2c1 [Example 26 (147), 3-{[4-(4-isopropoxy-6-methoxyquinoline-3-yl)methyloxy]phenylmethylene}-2,4-dioxopentane]	0.1	3.7	12.8	59.0			
CNC(=O)C(Cc1ccc(OCc2cnc3ccc(OC)cc3c2OC(C)C)cc1)C(C)=O (stereo not shown) [Example 24 (141), 2-{[4-(4-isopropoxy-6-methoxyquinoline-3-yl)methyloxy]phenylmethyl}-3-oxobutanoic acid N-methylamide]	0.8	1.2	9.4	71.6			
CCCCNC(=O)C(Cc1ccc(OCc2cnc3ccc(OC)cc3c2OC(C)C)cc1)OCC (stereo not shown) [Example 4 (104), 2-ethoxy-3-{[4-(4-isopropoxy-6-methoxyquinoline-3-yl)methyloxy]phenyl}propanoic acid N-butylamide]	0.4	1.1	14.9	64.0	0.3	0.3	0.3
CCOC(Cc1ccc(OCc2cnc3ccc(OC)cc3c2OC(C)C)cc1)C(N)=O (stereo not shown) [Example 3 (102), 2-ethoxy-3-{[4-(4-isopropoxy-6-methoxyquinoline-3-yl)methyloxy]phenyl}propanoic acid amide]	74.1	114	108	71.7	0.4	0.9	8.5
